Measurements as given in ChEMBL document CHEMBL1152832, “Quantitative structure-activity relationship (QSAR) of aryl alkenyl amides/imines for bacterial efflux pump inhibitors” (2009).
≈ marks a conversion by molar mass, not a printed value. Calls of active or inactive are those of the source. The calls are words filed in the database; no cut-off is given here.

Test system: Staphylococcus aureus
Assay: Inhibition of multidrug resistance efflux pump in Staphylococcus aureus ATCC 29213 assessed as potentiation factor measured by reduction in weighted average of ciprofloxacin MIC by serial dilution method
Settings: not given

Row | SMILES | PF | logPF
1 | CCC(/C=C/C(=O)N1CCCC1)=C\c1ccc2c(c1)OCO2 | 90 | 1.95
2 | CCCC(/C=C/C(=O)O)=C\c1ccc2c(c1)OCO2 | inactive | inactive
3 | CCC(/C=C/C(=O)N1CCC(O)CC1)=C\c1ccc2c(c1)OCO2 | 210 | 2.32
4 | CCC(/C=C/C(=O)N1CCN(C)CC1)=C\c1ccc2c(c1)OCO2 | 130 | 2.11
5 | CCC(/C=C/C(=O)Nc1ccccc1)=C\c1ccccc1 | 210 | 2.32
6 | CCC(CCC(=O)NCC(C)C)Cc1ccc2c(c1)OCO2 (stereo not drawn) | 70 | 1.85
7 | CCC(/C=C/C(=O)NCC(C)C)=C\c1ccc2c(c1)OCO2 | 270 | 2.43
8 | CCCCCCC(/C=C/C(=O)N1CCCCC1)=C\c1ccc(OC)cc1 | 130 | 2.11
9 | CCCCC(/C=C/C(=O)N1CCC(O)CC1)=C\c1ccc2c(c1)OCO2 | 70 | 1.85
10 | COc1cc(/C=C(C)/C=C/C(=O)N2CCCCC2)ccc1O | 10 | 1
11 | CC(/C=C/C(=O)N1CCCCC1)=C\c1ccc2c(c1)OCO2 | 180 | 2.25
12 | CCCCC(/C=C/C(=O)N1CCN(C)CC1)=C\c1ccc2c(c1)OCO2 | 160 | 2.2
13 | CCC(CCCC(=O)NCC(=O)NCC(=O)OC)Cc1ccc2c(c1)OCO2 (stereo not drawn) | 70 | 1.85
14 | COc1ccc(/C=C(C)/C=C/C(=O)N2CCCCC2)cc1 | 130 | 2.11
15 | O=C(/C=C/C=C/c1ccc2c(c1)OCCO2)N1CCOCC1 | 40 | 1.6
16 | CC/C=C/C(=C/c1ccc2c(c1)OCO2)CC | 20 | 1.3
17 | CC(/C=C/C(=O)N1CCC(O)CC1)=C\c1ccc2c(c1)OCO2 | 210 | 2.32
18 | CCC(CO)NC(=O)/C=C/C(C)=C/c1ccc2c(c1)OCO2 (stereo not drawn) | 30 | 1.48
19 | CCOC(=O)/C=C/C(C)=C/c1ccc2c(c1)OCO2 | inactive | inactive
20 | CCCC(/C=C/C(=O)N1CCN(C)CC1)=C\c1ccc2c(c1)OCO2 | 60 | 1.78
21 | CCC(/C=C/C(=O)N1CCCCC1)=C\c1ccc2c(c1)OCO2 | 240 | 2.38
22 | CC(/C=C/C(=O)O)=C\c1ccc2c(c1)OCO2 | 10 | 1
23 | CC(/C=C/C(=O)NC(C)c1ccc(Br)cc1)=C\c1ccc2c(c1)OCO2 (stereo not drawn) | 380 | 2.58

Row | SMILES | PF | logPF
24 | CC(/C=C/C(=O)N1CCCC1)=C\c1ccc2c(c1)OCO2 (stereo in doubt; 12) | 130 | 2.11
25 | CC(/C=C/C(=O)N1CCCC1)=C\c1ccc2c(c1)OCO2 (stereo in doubt; 3) | 110 | 2.04
26 | CCCCC(/C=N/C(CC)CO)=C\c1ccc(OC)cc1 (stereo not drawn) | 100 | 2
27 | COC(=O)/C=C/C(C)=C/c1ccc2c(c1)OCO2 | inactive | inactive
28 | CCCC(/C=C/C(=O)N1CCN(C)CC1)=C\c1ccc(OC)cc1 | 130 | 2.11
29 | CCC(/C=C/C(=O)Nc1ccccc1C)=C\c1ccc2c(c1)OCO2 | 60 | 1.78
30 | CCCCC(/C=N/c1ccccc1C(=O)O)=C\c1ccc(OC)cc1 | 100 | 2
31 | CC(/C=C/C(=O)N1CCOCC1)=C\c1ccc2c(c1)OCO2 | inactive | inactive
32 | CCCCC(/C=N/O)=C\c1ccc(OC)cc1 | 100 | 2
33 | CCC(/C=C/C(=O)N[C@@](C)(O)c1ccccc1)=C\c1ccc2c(c1)OCO2 | 30 | 1.48
34 | C(/C=C/c1ccc2c(c1)OCO2)=C\CN1CCCCC1 | 30 | 1.48
35 | CCCC(/C=C/C(=O)N1CCCCC1)=C\c1ccc(OC)cc1 | 210 | 2.32
36 | CCC(/C=C/CN1CCCCC1)=C\c1ccc2c(c1)OCO2 | 70 | 1.85
37 | CCC(/C=C/C(=O)N1CCCCC1)=C\c1ccc(OC)c(OC)c1 | 220 | 2.34
38 | CCCC(/C=C/C(=O)N1CCCCC1)=C\c1ccc2c(c1)OCO2 | 210 | 2.32
39 | CCC(/C=N/C(CC)CO)=C\c1ccc2c(c1)OCO2 (stereo not drawn) | 150 | 2.18
40 | CCC(/C=C/C(=O)NCC(=O)OC)=C\c1ccc2c(c1)OCO2 | 290 | 2.46
41 | CCC(/C=C/C(=O)O)=C\c1ccc2c(c1)OCO2 | 10 | 1
42 | CCC(/C=C/C(=O)Nc1ccccc1OC)=C\c1ccc2c(c1)OCO2 | 60 | 1.78
43 | CC(/C=C/C(=O)N1CCN(C)CC1)=C\c1ccc2c(c1)OCO2 | 130 | 2.11
44 | CCC(/C=C/C(=O)NC(C)C=O)=C\c1ccc2c(c1)OCO2 (stereo not drawn) | 30 | 1.48
45 | CCCCC(/C=C/C(=O)N1CCCCC1)=C\c1ccc2c(c1)OCO2 | 200 | 2.3
46 | CC(=O)CNC(=O)CC(=O)/C=C/C(C)=C/c1ccc2c(c1)OCO2 | 310 | 2.49

Test system: Staphylococcus aureus
Assay: microbe, parasite or virus in culture
Settings: ATCC 29213, 24 h
Description: Antibacterial activity against Staphylococcus aureus ATCC 29213 after 24 hrs

Row | SMILES | MIC [µg/mL]
47 | O=C(O)c1cn(C2CC2)c2cc(N3CCNCC3)c(F)cc2c1=O [CIPROFLOXACIN] | 0.25 (≈ 0.754 µM)
